The compounds below were run against T1, […]F508-CFTR (Homo sapiens, UniProt P13569, DEL508-508) (assay: Assay results of Table 3: ΔF508-CFTR modulation, membrane potential optical assay (assay format not stated)). Conditions: efficacy range; NIH3T3 mouse fibroblasts stably expressing […]F508-CFTR (optical assays).
T1 construct: expressed in transfected cells
Format: cell-based
Procedure, shortened: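 Two VIPR II FRET voltage-dye formats in ΔF508-CFTR NIH3T3 cells yield EC50 and efficacy. Potentiator mode: 27° C.-corrected cells get compound in Cl⁻-free medium, forskolin 2-10 μM after 22 s (final Cl⁻ 28 mM). Corrector mode: compound 16 h at 37° C., activation with forskolin 10 μM plus genistein 20 μM.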

T1 sequence (P13569 with tags, fused parts or gaps DEL508-508): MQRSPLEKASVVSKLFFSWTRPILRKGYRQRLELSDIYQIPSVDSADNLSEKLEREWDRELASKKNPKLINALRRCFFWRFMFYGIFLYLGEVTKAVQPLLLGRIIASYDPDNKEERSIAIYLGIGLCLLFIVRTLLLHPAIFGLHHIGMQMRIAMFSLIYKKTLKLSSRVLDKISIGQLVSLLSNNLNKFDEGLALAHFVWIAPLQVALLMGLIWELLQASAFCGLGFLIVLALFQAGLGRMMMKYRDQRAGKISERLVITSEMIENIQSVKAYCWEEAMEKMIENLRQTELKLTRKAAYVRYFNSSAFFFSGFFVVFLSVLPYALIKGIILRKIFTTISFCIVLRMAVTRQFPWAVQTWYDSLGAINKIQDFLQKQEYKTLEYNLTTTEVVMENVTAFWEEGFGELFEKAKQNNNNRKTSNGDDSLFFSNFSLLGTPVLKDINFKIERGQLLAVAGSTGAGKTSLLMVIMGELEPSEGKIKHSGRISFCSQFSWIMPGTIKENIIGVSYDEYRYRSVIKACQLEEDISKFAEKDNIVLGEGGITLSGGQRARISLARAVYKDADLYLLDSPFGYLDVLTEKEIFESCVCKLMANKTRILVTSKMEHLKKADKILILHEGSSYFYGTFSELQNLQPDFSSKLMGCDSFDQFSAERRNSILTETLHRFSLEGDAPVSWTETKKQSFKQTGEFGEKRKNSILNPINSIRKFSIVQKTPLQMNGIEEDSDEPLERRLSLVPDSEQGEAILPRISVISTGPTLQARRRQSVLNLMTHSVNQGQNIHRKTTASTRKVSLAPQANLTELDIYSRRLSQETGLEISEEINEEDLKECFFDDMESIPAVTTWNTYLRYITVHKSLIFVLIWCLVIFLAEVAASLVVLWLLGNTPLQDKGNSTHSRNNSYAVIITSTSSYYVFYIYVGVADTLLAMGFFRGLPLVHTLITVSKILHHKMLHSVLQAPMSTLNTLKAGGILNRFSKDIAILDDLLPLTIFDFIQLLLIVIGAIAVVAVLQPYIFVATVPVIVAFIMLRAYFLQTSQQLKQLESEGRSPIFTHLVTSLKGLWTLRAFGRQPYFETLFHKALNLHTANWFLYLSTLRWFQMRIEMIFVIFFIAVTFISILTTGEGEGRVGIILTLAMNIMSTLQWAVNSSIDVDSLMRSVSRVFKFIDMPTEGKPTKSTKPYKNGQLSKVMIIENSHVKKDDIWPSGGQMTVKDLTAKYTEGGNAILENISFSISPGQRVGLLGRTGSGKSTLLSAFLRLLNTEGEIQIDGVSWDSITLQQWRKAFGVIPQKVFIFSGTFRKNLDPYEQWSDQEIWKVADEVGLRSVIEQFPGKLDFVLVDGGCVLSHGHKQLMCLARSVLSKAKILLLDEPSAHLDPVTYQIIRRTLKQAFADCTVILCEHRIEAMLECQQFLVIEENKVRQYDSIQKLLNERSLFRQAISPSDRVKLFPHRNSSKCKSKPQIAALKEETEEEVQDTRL

Row | Compound | Efficacy
1 | CCN(CC)c1nc(C(N)=O)cc(-c2ccc(C(=O)OC)cc2)n1 [Compound 223] | +++ (+++ corresponds to Efficacy greater than 100)
2 | COc1ccccc1-c1cc(C(N)=O)nc(N2CCCCC2)n1 [Compound 205] | ++ (++ corresponds to Efficacy between 100 and 50)
3 | NC(=O)c1cc(-c2cc(Cl)ccc2Cl)nc(N2CCCCC2)n1 [Compound 202] | ++ (++ corresponds to Efficacy between 100 and 50)
4 | N#Cc1cccc(-c2cc(C(N)=O)nc(N3CCCCC3)n2)c1 [Compound 111] | ++ (++ corresponds to Efficacy between 100 and 50)
5 | NC(=O)c1cc(-c2ccccc2)nc(N2CCC3(CC2)OCCO3)n1 [Compound 44] | ++ (++ corresponds to Efficacy between 100 and 50)
6 | CC1CCCN(c2nc(C(N)=O)cc(-c3ccccc3)n2)C1 (centres unmarked) [Compound 149] | ++ (++ corresponds to Efficacy between 100 and 50)
7 | CCN(CC)c1nc(C(N)=O)cc(-c2cc(C(C)C)ccc2OC)n1 [Compound 76] | +++ (+++ corresponds to Efficacy greater than 100)
8 | COc1ccc(C2(CNc3nc(C(N)=O)cc(-c4ccccc4)n3)CCCC2)cc1OC [Compound 187] | ++ (++ corresponds to Efficacy between 100 and 50)
9 | CCN(CC)c1nc(C(N)=O)cc(-c2cccc(Cl)c2Cl)n1 [Compound 210] | ++ (++ corresponds to Efficacy between 100 and 50)
10 | CCN(CC)c1nc(C(N)=O)cc(-c2ccc(F)cc2F)n1 [Compound 107] | ++ (++ corresponds to Efficacy between 100 and 50)
11 | NC(=O)c1cc(-c2ccccc2)nc(N2CCCC2)n1 [Compound 26] | ++ (++ corresponds to Efficacy between 100 and 50)
12 | CCN(CC)c1nc(C(N)=O)cc(-c2ccc(OC)c(OC)c2)n1 [Compound 82] | ++ (++ corresponds to Efficacy between 100 and 50)
13 | C#CCNc1nc(C(N)=O)cc(-c2ccccc2)n1 [Compound 154] | + (+ corresponds to Efficacy less than 50)
14 | NC(=O)c1cc(-c2ccoc2)nc(N2CCCCC2)n1 [Compound 25] | + (+ corresponds to Efficacy less than 50)
15 | CC(C)c1ccc(-c2cc(C(N)=O)nc(N3CCCCC3)n2)cc1 [Compound 166] | + (+ corresponds to Efficacy less than 50)
16 | NC(=O)c1cc(-c2ccccc2OC(F)(F)F)nc(N2CCCCC2)n1 [Compound 152] | ++ (++ corresponds to Efficacy between 100 and 50)
17 | NC(=O)c1cc(-c2ccccc2)nc(N2CCOCC2)n1 [Compound 167] | ++ (++ corresponds to Efficacy between 100 and 50)
18 | C=CCN(C)c1nc(C(N)=O)cc(-c2ccccc2)n1 [Compound 14] | +++ (+++ corresponds to Efficacy greater than 100)
19 | CCN(C)c1nc(C(N)=O)cc(-c2ccccc2)n1 [Compound 7] | +++ (+++ corresponds to Efficacy greater than 100)
20 | CCOC(=O)C1CCCN(c2nc(C(N)=O)cc(-c3ccccc3)n2)C1 (centres unmarked) [Compound 59] | + (+ corresponds to Efficacy less than 50)
21 | CNc1nc(C(N)=O)cc(-c2cccc(OC)c2)n1 [Compound 231] | ++ (++ corresponds to Efficacy between 100 and 50)
22 | NC(=O)c1cc(-c2ccccc2)nc(-n2ccnc2)n1 [Compound 58] | + (+ corresponds to Efficacy less than 50)
23 | CCN(CC)c1nc(C(N)=O)cc(-c2ccc(OC)cc2)n1 [Compound 109] | +++ (+++ corresponds to Efficacy greater than 100)
24 | NC(=O)c1cc(-c2ccccc2)nc(N2CCC(C(=O)c3ccc(Cl)cc3)CC2)n1 [Compound 28] | ++ (++ corresponds to Efficacy between 100 and 50)
25 | N#CC1(c2ccccc2)CCN(c2nc(C(N)=O)cc(-c3ccccc3)n2)CC1 [Compound 180] | ++ (++ corresponds to Efficacy between 100 and 50)

Row | Compound | Efficacy
26 | CCOC(=O)CN(C)c1nc(C(N)=O)cc(-c2ccccc2)n1 [Compound 209] | ++ (++ corresponds to Efficacy between 100 and 50)
27 | CCOC(=O)C1CCN(c2nc(C(N)=O)cc(-c3ccccc3)n2)CC1 [Compound 99] | + (+ corresponds to Efficacy less than 50)
28 | NC(=O)c1cc(-c2ccccc2)nc(NCC2CC2)n1 [Compound 27] | ++ (++ corresponds to Efficacy between 100 and 50)
29 | CCCC1CCN(c2nc(C(N)=O)cc(-c3ccccc3)n2)CC1 [Compound 73] | + (+ corresponds to Efficacy less than 50)
30 | CCN(CC)c1nc(C(N)=O)cc(-c2ccc(C)c(C)c2)n1 [Compound 207] | +++ (+++ corresponds to Efficacy greater than 100)
31 | CCN(CC)c1nc(C(N)=O)cc(-c2ccccc2F)n1 [Compound 94] | +++ (+++ corresponds to Efficacy greater than 100)
32 | COc1ccccc1-c1cc(C(N)=O)nc(NCC2CCCO2)n1 (centres unmarked) [Compound 193] | +++ (+++ corresponds to Efficacy greater than 100)
33 | Cc1cccc(-c2cc(C(N)=O)nc(N3CCCCC3)n2)c1C [Compound 11] | ++ (++ corresponds to Efficacy between 100 and 50)
34 | CCN(CC)c1nc(C(N)=O)cc(-c2cnc(OC)nc2OC)n1 [Compound 174] | ++ (++ corresponds to Efficacy between 100 and 50)
35 | CC(C)CNc1nc(C(N)=O)cc(-c2ccccc2)n1 [Compound 51] | ++ (++ corresponds to Efficacy between 100 and 50)
36 | COc1ccc(C(C)C)cc1-c1cc(C(N)=O)nc(N2CCCCC2)n1 [Compound 224] | + (+ corresponds to Efficacy less than 50)
37 | CCOc1ccccc1-c1cc(C(N)=O)nc(N(CC)CC)n1 [Compound 5] | +++ (+++ corresponds to Efficacy greater than 100)
38 | CCN(CC)c1nc(C(N)=O)cc(-c2ccc(C(F)(F)F)cc2)n1 [Compound 10] | ++ (++ corresponds to Efficacy between 100 and 50)
39 | C#CCNc1nc(C(N)=O)cc(-c2cccc(OC)c2)n1 [Compound 145] | ++ (++ corresponds to Efficacy between 100 and 50)
40 | COc1ccccc1-c1cc(C(N)=O)nc(N(CCO)CCO)n1 [Compound 90] | + (+ corresponds to Efficacy less than 50)
41 | NC(=O)c1cc(-c2ccccc2Oc2ccccc2)nc(N2CCCCC2)n1 [Compound 146] | +++ (+++ corresponds to Efficacy greater than 100)
42 | CCCCN(CC#N)c1nc(C(N)=O)cc(-c2ccccc2)n1 [Compound 13] | ++ (++ corresponds to Efficacy between 100 and 50)
43 | O=C(c1cc(-c2ccccc2)nc(N2CC=CC2)n1)N1CC=CC1 [Compound 93] | ++ (++ corresponds to Efficacy between 100 and 50)
44 | CCN(CC)c1nc(C(N)=O)cc(-c2ccc(C(C)C)cc2)n1 [Compound 55] | ++ (++ corresponds to Efficacy between 100 and 50)
45 | COc1ccc(-c2cc(C(N)=O)nc(NCC3CC3)n2)cc1 [Compound 189] | + (+ corresponds to Efficacy less than 50)
46 | COCCCNc1nc(C(N)=O)cc(-c2cccc(OC)c2)n1 [Compound 88] | + (+ corresponds to Efficacy less than 50)
47 | COc1cc2c(cc1OC)CN(c1nc(C(N)=O)cc(-c3ccccc3)n1)CC2 [Compound 49] | ++ (++ corresponds to Efficacy between 100 and 50)
48 | Cc1ccc(-c2cc(C(N)=O)nc(N3CCCCC3)n2)cc1C [Compound 40] | ++ (++ corresponds to Efficacy between 100 and 50)
49 | NC(=O)c1cc(-c2ccccc2)nc(N2CCc3ccccc3C2)n1 [Compound 54] | ++ (++ corresponds to Efficacy between 100 and 50)

Same assay, conditions: potency range; NIH3T3 mouse fibroblasts stably expressing […]F508-CFTR (optical assays)

Row | Compound | EC50
50 | CCN(CC)c1nc(C(N)=O)cc(-c2ccc(C(=O)OC)cc2)n1 [Compound 223] | 1 to 5 µM
51 | COc1ccccc1-c1cc(C(N)=O)nc(N2CCCCC2)n1 [Compound 205] | > 5 µM
52 | NC(=O)c1cc(-c2cc(Cl)ccc2Cl)nc(N2CCCCC2)n1 [Compound 202] | 1 to 5 µM
53 | N#Cc1cccc(-c2cc(C(N)=O)nc(N3CCCCC3)n2)c1 [Compound 111] | > 5 µM
54 | NC(=O)c1cc(-c2ccccc2)nc(N2CCC3(CC2)OCCO3)n1 [Compound 44] | > 5 µM
55 | CC1CCCN(c2nc(C(N)=O)cc(-c3ccccc3)n2)C1 (centres unmarked) [Compound 149] | > 5 µM
56 | CCN(CC)c1nc(C(N)=O)cc(-c2cc(C(C)C)ccc2OC)n1 [Compound 76] | < 1 µM
57 | COc1ccc(C2(CNc3nc(C(N)=O)cc(-c4ccccc4)n3)CCCC2)cc1OC [Compound 187] | 1 to 5 µM
58 | CCN(CC)c1nc(C(N)=O)cc(-c2cccc(Cl)c2Cl)n1 [Compound 210] | < 1 µM
59 | CCN(CC)c1nc(C(N)=O)cc(-c2ccc(F)cc2F)n1 [Compound 107] | < 1 µM
60 | NC(=O)c1cc(-c2ccccc2)nc(N2CCCC2)n1 [Compound 26] | 1 to 5 µM
61 | CCN(CC)c1nc(C(N)=O)cc(-c2ccc(OC)c(OC)c2)n1 [Compound 82] | < 1 µM
62 | C#CCNc1nc(C(N)=O)cc(-c2ccccc2)n1 [Compound 154] | > 5 µM
63 | NC(=O)c1cc(-c2ccoc2)nc(N2CCCCC2)n1 [Compound 25] | > 5 µM
64 | CC(C)c1ccc(-c2cc(C(N)=O)nc(N3CCCCC3)n2)cc1 [Compound 166] | > 5 µM
65 | NC(=O)c1cc(-c2ccccc2OC(F)(F)F)nc(N2CCCCC2)n1 [Compound 152] | 1 to 5 µM
66 | NC(=O)c1cc(-c2ccccc2)nc(N2CCOCC2)n1 [Compound 167] | > 5 µM
67 | C=CCN(C)c1nc(C(N)=O)cc(-c2ccccc2)n1 [Compound 14] | 1 to 5 µM
68 | CCN(C)c1nc(C(N)=O)cc(-c2ccccc2)n1 [Compound 7] | 1 to 5 µM
69 | CCOC(=O)C1CCCN(c2nc(C(N)=O)cc(-c3ccccc3)n2)C1 (centres unmarked) [Compound 59] | 1 to 5 µM
70 | CNc1nc(C(N)=O)cc(-c2cccc(OC)c2)n1 [Compound 231] | > 5 µM
71 | NC(=O)c1cc(-c2ccccc2)nc(-n2ccnc2)n1 [Compound 58] | > 5 µM
72 | CCN(CC)c1nc(C(N)=O)cc(-c2ccc(OC)cc2)n1 [Compound 109] | < 1 µM
73 | NC(=O)c1cc(-c2ccccc2)nc(N2CCC(C(=O)c3ccc(Cl)cc3)CC2)n1 [Compound 28] | > 5 µM
74 | N#CC1(c2ccccc2)CCN(c2nc(C(N)=O)cc(-c3ccccc3)n2)CC1 [Compound 180] | > 5 µM

Row | Compound | EC50
75 | CCOC(=O)CN(C)c1nc(C(N)=O)cc(-c2ccccc2)n1 [Compound 209] | 1 to 5 µM
76 | CCOC(=O)C1CCN(c2nc(C(N)=O)cc(-c3ccccc3)n2)CC1 [Compound 99] | 1 to 5 µM
77 | NC(=O)c1cc(-c2ccccc2)nc(NCC2CC2)n1 [Compound 27] | > 5 µM
78 | CCCC1CCN(c2nc(C(N)=O)cc(-c3ccccc3)n2)CC1 [Compound 73] | 1 to 5 µM
79 | CCN(CC)c1nc(C(N)=O)cc(-c2ccc(C)c(C)c2)n1 [Compound 207] | 1 to 5 µM
80 | CCN(CC)c1nc(C(N)=O)cc(-c2ccccc2F)n1 [Compound 94] | 1 to 5 µM
81 | COc1ccccc1-c1cc(C(N)=O)nc(NCC2CCCO2)n1 (centres unmarked) [Compound 193] | 1 to 5 µM
82 | Cc1cccc(-c2cc(C(N)=O)nc(N3CCCCC3)n2)c1C [Compound 11] | 1 to 5 µM
83 | CCN(CC)c1nc(C(N)=O)cc(-c2cnc(OC)nc2OC)n1 [Compound 174] | > 5 µM
84 | CC(C)CNc1nc(C(N)=O)cc(-c2ccccc2)n1 [Compound 51] | > 5 µM
85 | COc1ccc(C(C)C)cc1-c1cc(C(N)=O)nc(N2CCCCC2)n1 [Compound 224] | > 5 µM
86 | CCOc1ccccc1-c1cc(C(N)=O)nc(N(CC)CC)n1 [Compound 5] | < 1 µM
87 | CCN(CC)c1nc(C(N)=O)cc(-c2ccc(C(F)(F)F)cc2)n1 [Compound 10] | > 5 µM
88 | C#CCNc1nc(C(N)=O)cc(-c2cccc(OC)c2)n1 [Compound 145] | > 5 µM
89 | COc1ccccc1-c1cc(C(N)=O)nc(N(CCO)CCO)n1 [Compound 90] | > 5 µM
90 | NC(=O)c1cc(-c2ccccc2Oc2ccccc2)nc(N2CCCCC2)n1 [Compound 146] | 1 to 5 µM
91 | CCCCN(CC#N)c1nc(C(N)=O)cc(-c2ccccc2)n1 [Compound 13] | > 5 µM
92 | O=C(c1cc(-c2ccccc2)nc(N2CC=CC2)n1)N1CC=CC1 [Compound 93] | > 5 µM
93 | CCN(CC)c1nc(C(N)=O)cc(-c2ccc(C(C)C)cc2)n1 [Compound 55] | < 1 µM
94 | COc1ccc(-c2cc(C(N)=O)nc(NCC3CC3)n2)cc1 [Compound 189] | > 5 µM
95 | COCCCNc1nc(C(N)=O)cc(-c2cccc(OC)c2)n1 [Compound 88] | > 5 µM
96 | COc1cc2c(cc1OC)CN(c1nc(C(N)=O)cc(-c3ccccc3)n1)CC2 [Compound 49] | > 5 µM
97 | Cc1ccc(-c2cc(C(N)=O)nc(N3CCCCC3)n2)cc1C [Compound 40] | > 5 µM
98 | NC(=O)c1cc(-c2ccccc2)nc(N2CCc3ccccc3C2)n1 [Compound 54] | 1 to 5 µM

Reference: patent publication US8822451B2, “Modulators of ATP-binding cassette transporters” (Vertex Pharmaceuticals Incorporated, priority 2005, dated 2014)
